The values below come from a melting point compilation (Tetko et al.; mined from patent text by program, amines drawn as free bases though some values may be those of a salt).

Structures are written as SMILES.

The compound `CSC1C(=O)Nc2cccc(-c3ccccc3)c21` (centres undefined) showed a melting point of 182 to 185 °C.

On to `CCNCC1CCN(c2c(F)cc3c(=O)c(C(=O)O)cn4c3c2OCC4CC)C1` (centres undefined), for which the melting point lay in the range of 221 to 224 °C. The compound `CCOC(=O)/C=C/c1ccc2cc(OCc3ccccc3)ccc2c1` returned a melting point of 110 to 112 °C. Regarding `CN1CCOC(=NO)C1=O`, the melting point fell in the range of 199 to 201 °C. As for `COc1cc(CC(=O)NCCCc2ccc(C)c(C)c2)ccc1OCCN`, the melting point was found to be 125 °C.

On to `O=C1NCCc2ccc(OCCCCN3CCCN(c4cccc(Cl)c4Cl)CC3)cc21`, for which the melting point lay in the range of 86 to 88 °C.

The compound `Cc1ccc(Nc2nc(=O)cc(N)n2-c2ccccc2)cc1` had a melting point of 207 to 210 °C. `Nc1ncccc1C(=O)NCC1CCN(C[C@H]2COc3ccc4[nH]ccc4c3O2)CC1` came in with a melting point of 104 to 106 °C. In the case of `CS(=O)(=O)c1ccc(-c2cc(=O)n(CC3CC3)nc2-c2ccc(F)cc2)cc1` it was 130 to 132 °C; in that of `CCC1(C2OC(C3OC(O)(CO)C(C)CC3C)CC2C)CCC(C2(C)CCC3(CC(O)C(C)C(C(C)C(OC)C(C)C(=O)O)O3)O2)O1` (centres undefined), 78 to 80 °C; in that of `Cc1ccc(F)c(-c2cc(Nc3ccnc4cn(CC(O)CO)nc34)ccn2)n1` (centres undefined), 182 to 184 °C. `CNC(=O)c1ccc(-c2ccc(NC(=O)NCc3cccnc3)cc2)nc1Nc1ccccc1`: the melting point was 234 to 236 °C. `COC(=O)CCCCCOc1ccc(NC(=O)COCc2ccccc2)cc1` gave a melting point of 46 to 49 °C.

In the case of `COc1ccc2c(c1)CCc1c(cccc1C(=O)O)S2`, the melting point was 185 to 187 °C. As for `COc1ccc(NC(=O)Nc2ccc(Cl)c(Cl)c2)cc1NC(=S)Nc1ccc(Cl)c([N+](=O)[O-])c1`, the figure is 162 to 170 °C; as for `Cn1cc(C(=O)NCc2ccc(Cl)cc2)c(=O)c2cc(/C=C/CO)ccc21`, 103 to 106 °C.

`CCOC(=O)c1cc(-c2ccc(OC)cc2)[nH]c1N`: the melting point was 141 to 142 °C. `CCOc1cc2ncc(C#N)c(NCc3ccc(OC)c(OC)c3)c2cc1OCC` yielded a melting point of 200 to 204 °C. With `CCNC(=O)c1cccc(C(F)(F)F)c1`, the melting point fell in the range of 98 to 99 °C. With `COc1ccc(C#N)c(Cl)c1OC(C)=O`, the melting point lay in the range of 97 to 99 °C. In the case of `O=C(O)COC1=C(C(=O)Nc2cc(Cl)cc(Cl)c2)SC2=NCCCN21` it was 247 °C. Take `COc1ccc(CNC(=O)C(=O)NCCc2ccccn2)cc1`: the melting point is 156 to 158 °C.

In the case of `CC(=O)OC(C(=O)c1cccnc1)c1cccnc1` (centres undefined), the melting point is 136 to 138 °C. Compound `O=C(C=Cc1ccc(Oc2ccccc2)cc1)c1ccc(C2CCCCC2)cc1` showed a melting point of 161 °C.

As for `Cc1cc2c(c(C)c1NC=O)C(c1ccc(C(C)C)cc1)CO2` (centres undefined), the melting point was in the range of 193 to 196 °C.

Regarding `O=C(NCCO)/C(=C/c1ccc(OC2CC2)cc1)NC(=O)c1ccc(OCCc2ccc(Cl)cc2)cc1`, the melting point lay within 66 to 69 °C. The compound `CCCCCCCCCCCCCCCCCCN1C(=O)CCC1=O` showed a melting point of 75.8 °C. In the case of `Cc1nc2sccn2c(=O)c1CCN1CCC2Nc3ccccc3C2C1` (centres undefined) it was 152 °C; in that of `O=C1Cc2cc3c(cc2C(c2ccc(F)cc2)=NN1)OCO3`, 205 to 207 °C; in that of `CN=C(O)c1cc([N+](=O)[O-])cc([N+](=O)[O-])c1C(=O)O`, 174 to 176 °C. Take `CC(NO)C(=O)OC(C)(C)C` (centres undefined): the melting point fell in the range of 69 to 70 °C. For the compound `CC(C)(C)c1cc2c(c(C(C)(C)C)c1O)CC1(CCCCC1)S2`, the melting point was 128 °C. The compound `O=C(Oc1ccccc1)N1C(=O)[C@H](O)[C@@H]1c1ccccc1` displayed a melting point of 125 to 126 °C. Take `CC(=O)SC[C@H](NC(=O)OC(C)(C)C)C(=O)NC(CS)C(C)=O` (some centres undefined): the melting point lay within 111 to 113 °C. `CC(=O)OCCOCn1c(=O)sc2c(=O)[nH]c(N)nc21` showed a melting point of 173 to 176 °C. As to `CCCCN(Cc1ccc(-c2ccccc2S(=O)(=O)NC(=O)OC(C)(C)C)cc1)C(=O)N1CCCc2ccccc21`, the melting point was above 67 °C. `CCCn1c(=O)c2[nH]c(/C=C/c3ccc(OC)c(OC)c3OC)nc2n(CCC)c1=O` came in with a melting point of 246 to 247 °C. As for `Cc1cccc(CON2C(C)(C)CC(OC(=O)c3ccccc3)CC2(C)C)c1`, the figure is 64 to 65 °C; as for `Cc1cc2c(cc1C(F)(F)F)NC(=O)CC(c1cccc(-n3nncc3CNC3CC3)c1)=N2`, 181 °C; as for `O=C(O)C1=Cc2cc(CO)ccc2OC1CC(F)(F)F` (centres undefined), 178 to 181 °C. The compound `CCC(=O)CSc1cc(C(C)(C)C)c(O)c(C(C)(C)C)c1` registered a melting point of 55 to 57 °C. In the case of `CC(=O)OCSC1=CCC2C3CCC4=CC(=O)C=CC4(C)C3(F)C(O)CC12C` (centres undefined) it was 193 to 194 °C; in that of `Cc1ccc2c(c1)c(=O)c1c(cnn1C)n2CC#N`, 214 to 219 °C; in that of `O=C(NCCNCc1cc2cc(OCc3ccccc3)ccc2o1)C12CC3CC(CC(C3)C1)C2`, 169 to 170 °C. In turn, `O=C(O)CN1C(=O)[C@@H](N[C@@H](CCC2CCCCC2)C(=O)O)CSc2ccccc21` displayed a melting point of 207 to 210 °C.

With `O=C(CCCCCSc1ccc(Cl)cc1)NO`, the melting point was in the range of 83 to 85 °C. Regarding `CS(=O)(=O)c1ccc(-n2nc(C(F)(F)F)cc2-c2ccc(F)cc2)cc1`, the melting point is 127 to 129 °C. As for `CC(C)c1cc(N(C)C)cc2c1C(=O)N(COC(=O)c1c(Cl)cccc1Cl)S2(=O)=O`, the figure is 177 to 179 °C; as for `CCCCc1nn(CCC)c(C(=O)O)c1Cc1ccc(C2(C(=O)O)CC=CC2)s1`, 121 to 122 °C. The compound `COc1cccc(C#CC#Cc2cc(C(F)(F)F)ccc2C(F)(F)F)c1` displayed a melting point of 37 °C. In the case of `CC(C)c1cccc(C(C)C)c1NC(=O)C(C)C1c2ccccc2Oc2ccccc21` (centres undefined), the melting point is 210 to 211 °C. `COc1cc2c(cc1Br)CCC2=O` displayed a melting point of 149 to 151 °C. As for `CCCN1CCC(c2c[nH]c3ccc(NS(C)(=O)=O)cc23)CC1`, the melting point was in the range of 87 to 90 °C. `CCOC(=O)c1[nH]c2ccc(C)cc2c(=O)c1C`: the melting point lay in the range of 190 to 193 °C. For the compound `NC(=O)c1sc2nccc(N3CCN(c4ccccn4)CC3)c2c1N`, the melting point is 266 to 270 °C. `Cn1c(C(=O)O)cc2c3c(c(-c4ccccc4Cl)cc21)C(=O)NC3=O` showed a melting point of 301 to 302 °C. As for `CC(NC(=O)C1=C(C(=O)Nc2cc(OC3CCCC3)c(Cl)cc2F)CCCC1)c1ccccc1` (centres undefined), the figure is 173 to 175 °C. Regarding `CC(=O)c1cc(F)ccc1Oc1nc2ccc(Br)cc2cc1Cc1ccccc1`, the melting point was in the range of 115 to 117 °C.

Consider `CCOC(=O)CCn1c(=O)c(=O)[nH]c2cc(C(F)(F)F)c(-n3c(C)ccc3C)cc21`, for which the melting point lay within 233 to 235 °C. In the case of `NC(=NO)c1nn(-c2c(Cl)cc(C(F)(F)F)cc2Cl)c(N)c1S(=O)C(F)(F)F` (centres undefined) it was 203 to 205 °C. In turn, `N#Cc1ccc(NC2CCN(Cc3ccc(C(F)(F)F)cc3)CC2)nn1` displayed a melting point of 243 °C. Turning to `O=C(O)Cc1cccc2c(=O)cc(-c3ccccc3F)oc12`, the melting point lay within 179 to 181 °C. On to `CCc1nn2c(-c3ccc(Cl)cc3Cl)cccc2c1[N+](=O)[O-]`, for which the melting point lay in the range of 147 to 149 °C. Take `CCOC(=O)c1ccc2c(c1)C(=C1CCN(C)CC1)c1ccccc1CC2`: the melting point was 85 to 87 °C. In turn, `CC(=O)C(C#N)C(=O)C1CC1` (centres undefined) displayed a melting point of 62 to 63.5 °C.

`CCCCCCCCCCCC#Cc1ccoc1C=O` came in with a melting point of 56 to 57 °C.

`COc1ccc(N2CCN(C(N)=O)C2=O)cc1OC`: the melting point turned out to be 240 °C.

For the compound `COC(=O)c1ccc(CNC(=O)c2ccc3n2Cc2ccccc2N(C(=O)COc2ccc(Cl)cc2C)C3)cc1`, the melting point lay in the range of 165 to 167 °C. Turning to `CN1C(=NCCCCn2ccnc2)c2cccc3cccc1c23`, the melting point lay in the range of 126 to 127 °C. With `CCC(=NNC(=O)C1CC1C)c1cccnc1` (centres undefined), the melting point was 137 °C.

For `Clc1ccc(C(c2ccccc2)c2c(Cl)ncnc2Cl)c(Cl)c1` (centres undefined), the melting point fell in the range of 138 to 139 °C. Consider `CC(C)(C)[C@H](N)C(N)=O`, for which the melting point was in the range of 104 to 105 °C.

With `CCn1c(=O)c2c(N)n[nH]c2n(CC)c1=O`, the melting point was 246 to 248 °C.

`O=C(O)Cc1ccc(COc2cccc(-c3c(-c4ccccc4)cnc4c(C(F)(F)F)cccc34)c2)cc1` gave a melting point of 122 °C.

Compound `NC(CC(=O)O)C(=O)N1C(=O)c2ccc(C(=O)O)cc2C1=O` (centres undefined) had a melting point of 242 to 243 °C. In turn, `COc1ccc(N(CCN2CCC(C(=O)c3ccc(F)cc3)CC2)C(=O)c2ccc([N+](=O)[O-])cc2)c(OC)c1` came in with a melting point of 51 to 54 °C. `ClC(Cl)c1cccc2nnsc12`: the melting point lay within 131 to 133 °C.

Take `CCOC(=O)c1ncc2c(c1COC)c1c(OCc3ccccc3)cccc1n2S(=O)(=O)c1ccc(C)cc1`: the melting point was 149 to 150 °C. In the case of `Cn1cc(CCNC(=O)OC(C)(C)C)c2cc(S(=O)(=O)c3ccccc3)ccc21`, the melting point was in the range of 127 to 131 °C. As for `Cc1c(Br)c2c(c(C)c1NC=O)C(c1ccc(C(C)C)cc1)CO2` (centres undefined), the figure is 151 to 152 °C; as for `O=C(N[C@H]1CCN(CCc2ccc(F)cc2)C1)C(C1CCCCC1)C1CCCCC1`, 122 to 124 °C. Compound `CCn1c(=O)n(O)c(=O)c2cc(F)c(N3CCNCC3)cc21` gave a melting point of 206 to 208 °C. For `Nc1cc(-c2cccnc2)c[nH]c1=O`, the melting point fell in the range of 280 to 290 °C.

Take `CCOC(=O)CNCc1c(N)ccc(N2CCCC2)c1Cl`: the melting point was 69 to 70 °C. Compound `Nc1nc(N)nc(C23CC4CC(CC(C4)C2)C3)n1` returned a melting point of 261 to 262 °C. As for `COc1cc(Cl)ccc1C(Nc1ccc(F)c2nc(C)ncc12)C(O)(C=C(C)C)C(F)(F)F` (centres undefined), the melting point is 118 °C.

`N#Cc1ccc(C(=O)NCCC(=O)NC(CC(=O)OCc2ccccc2)C(=O)NC(Cc2ccccc2)C(=O)OCc2ccccc2)nc1` (centres undefined) yielded a melting point of 157 to 158 °C.

Compound `C=CCSc1nnc(C(C)(C)C)[nH]1` registered a melting point of 127 to 130 °C. The compound `C=CCC(CC=C)(CC=C)c1ccc(-c2nc3cc(C#N)c(C#N)cc3[nH]2)cc1` gave a melting point of 264 to 266 °C.

One may read the melting point as the temperature of the solid-liquid transition.
